Results: US20200017496A1 (priority 2017, published 2020)

Tested on: Klebsiella pneumoniae (KPN) isolates
Test: MIC of compounds alone and combined with antibacterials, broth microdilution (CLSI)
Assay type: cell-based
Conditions: for MIC ATB in combination: AF1 @ 4 μg/mL; for MIC: alone
Outline: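 First, log-phase suspensions are brought to a final 5·10^5 CFU/mL in cation-adjusted Mueller-Hinton broth. Then plates with compound, antibacterial, or both incubate 16-20 h at 35° C under ambient air. Finally, visual inspection gives the lowest growth-preventing concentration for each agent.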

C=CC1=C(C(=O)O)N2C(=O)[C@@H](NC(=O)/C(=N\O)c3csc(N)n3)[C@H]2SC1 [CDR, Cefdinir]
<=0.25 μg/mL: MIC ATB in combination (KPN 6299) | MIC ATB in combination (KPN 160143) | MIC ATB in combination (KPN 190425) | MIC ATB in combination (KPN 190551) | MIC ATB in combination (KPN 200047) | MIC ATB in combination (KPN 200327) | MIC ATB in combination (KPN 260376) | MIC ATB in combination (KPN UFR25) | MIC ATB in combination (KPN UFR216) | MIC ATB in combination (KPN UFR217) | MIC ATB in combination (KPN UFR219)
128 mg/L: MIC ATB in combination (KPN UFR78)
16 mg/L: MIC ATB in combination (KPN 140513) | MIC ATB in combination (KPN 260252) | MIC ATB in combination (KPN UFR67) | MIC ATB in combination (KPN UFR79) | MIC ATB in combination (KPN UFR81) | MIC ATB in combination (KPN UFR222)
>128 mg/L: MIC ATB in combination (KPN UFR76)
1 mg/L: MIC ATB in combination (KPN 131119) | MIC ATB in combination (KPN 190128) | MIC ATB in combination (KPN 190270) | MIC ATB in combination (KPN 270077) | MIC ATB in combination (KPN LIB) | MIC ATB in combination (KPN UFR22_O) | MIC ATB in combination (KPN UFR28) | MIC ATB in combination (KPN UFR80)
4 mg/L: MIC ATB in combination (KPN UFR24)
8 mg/L: MIC ATB in combination (KPN UFR27) | MIC ATB in combination (KPN UFR77)
2 mg/L: MIC ATB in combination (KPN UFR65) | MIC ATB in combination (KPN UFR66) | MIC ATB in combination (KPN UFR68) | MIC ATB in combination (KPN UFR220) | MIC ATB in combination (KPN UFR221)
0.5 mg/L: MIC ATB in combination (KPN 110376) | MIC ATB in combination (KPN 260251) | MIC ATB in combination (KPN 700603) | MIC ATB in combination (KPN ARA) | MIC ATB in combination (KPN BAA-1898) | MIC ATB in combination (KPN UFR23) | MIC ATB in combination (KPN UFR215)
32 mg/L: MIC ATB in combination (KPN UFR227O)

NC(=O)[C@@H]1CC[C@@H]2CN1C(=O)N2OC(F)(F)C(=O)[O-].[Na+] [EA1]
>32 mg/L: MIC (KPN 6299) | MIC (KPN 110376) | MIC (KPN 131119) | MIC (KPN 140513) | MIC (KPN 160143) | MIC (KPN 190128) | MIC (KPN 190270) | MIC (KPN 190425) | MIC (KPN 190551) | MIC (KPN 200047) | MIC (KPN 200327) | MIC (KPN 260251) | MIC (KPN 260252) | MIC (KPN 260376) | MIC (KPN 270077) | MIC (KPN 700603) | MIC (KPN ARA) | MIC (KPN BAA-1898) | MIC (KPN LIB) | MIC (KPN UFR22_O) | MIC (KPN UFR23) | MIC (KPN UFR24) | MIC (KPN UFR25) | MIC (KPN UFR27) | MIC (KPN UFR28) | MIC (KPN UFR65) | MIC (KPN UFR66) | MIC (KPN UFR67) | MIC (KPN UFR68) | MIC (KPN UFR76) | MIC (KPN UFR77) | MIC (KPN UFR78) | MIC (KPN UFR79) | MIC (KPN UFR80) | MIC (KPN UFR81) | MIC (KPN UFR215) | MIC (KPN UFR216) | MIC (KPN UFR217) | MIC (KPN UFR219) | MIC (KPN UFR220) | MIC (KPN UFR221) | MIC (KPN UFR222) | MIC (KPN UFR227O)
